A short description of this series: mutagenicity (Ames) testing of the crystals obtained. It counts as cell-based. Also noted: key: A “+” signifies a positive adverse effect on the body; a “−” denotes no adverse effect. Particulars: crystals obtained in the example. How it is done: The numbers in the table enclosed by parentheses in the column of solvents used in the reaction denote the molar fraction of the solubility of hydrogen chloride at normal temperature/pressure. The purity of the crystals obtained in Working Examples 1 to 7 and in the Comparative Example was analyzed by high-performance liquid chromatography and submitted to mutagenicity (Ames) testing. A “+” signifies a positive adverse effect on the body while a “−” denotes no adverse effect.

Turning to `Cn1sccc1=O` [Working Example 3, 2-methyl-4-isothiazoline-3-one], the Ames test entry was “−”.
The value for `CCCCCCCCn1sccc1=O` [Working Example 4, 2-n-octyl-4-isothiazoline-3-one] was “−”.
The value for `O=c1ccsn1Cc1ccccc1` [Working Example 7, 2-benzyl-4-isothiazoline-3-one] was “−”.
